Measurements from patent US20230096766A1, “AMINO ACID HAVING FUNCTIONAL GROUP CAPABLE OF INTERMOLECULAR HYDROGEN BONDING, PEPTIDE COMPOUND CONTAINING SAME AND METHOD FOR PRODUCTION THEREOF” (Chugai Seiyaku Kabushiki Kaisha, priority 2018, published 2023).
*1 amine or outer side, *2 acyl side, *3 side chain or, on linkers, in order; H or OH if unused. Where a SMILES comes first, the peptide text is derived from it. Bridges are numbered along the chain shown (N, C = ends). [ ]: non-standard residue; d: D form. The star is where a group is joined. Phe(3-CONHMe,4-OMe) = CNC(=O)c1cc(C[C@H](N)C(=O)O)ccc1OC; Phe(3-OMe,4-CONHMe) = CNC(=O)c1ccc(C[C@H](N)C(=O)O)cc1OC; NMePhe(3-Cl) = CN[C@@H](Cc1cccc(Cl)c1)C(=O)O; X12 = O=C([C@H](CCCC(O)C(F)(F)F)N[*:1])[*:2]; NMehPhe = CN[C@@H](CCc1ccccc1)C(=O)O; NMeF = CN[C@@H](Cc1ccccc1)C(=O)O; NMeGABA = CN(CCCC(=O)[*:2])[*:1]; NMeI = CC[C@H](C)[C@H](NC)C(=O)O; Butyl(3-Me,3-OH) = CC(C)(O)CC*; CH2CH(OH)CF3 = OC(C*)C(F)(F)F; NMeL = CN[C@@H](CC(C)C)C(=O)O; Propyl(2R-OH) = C[C@@H](O)C*; Butyl(3S-OH) = C[C@H](O)CC*; NMeV = CN[C@H](C(=O)O)C(C)C; NMeAbu = CC[C@H](NC)C(=O)O; NMeA = CN[C@@H](C)C(=O)O; Piperidide = C1CCN(*)CC1; CH2CMe2OH = CC(C)(O)C*; NBuGly = CCCCNCC(=O)O; NPrGly = CCCNCC(=O)O; Sar = CNCC(=O)O; tBu = CC(C)(C)*

Assay: in vitro
Settings: human
[1] = Caco-2, Caco-2 (membrane permeability)

CCCCN1CC(=O)N(C)[C@@H](CC(C)C)C(=O)N[C@@H](COCC(O)C(F)(F)F)C(=O)N(C)[C@@H](Cc2ccccc2)C(=O)N(C)[C@@H](C(C)C)C(=O)N[C@H](C(=O)N2CCCCC2)CC(=O)N[C@H](C(C)C)C(=O)N(C)[C@@H](Cc2ccccc2)C(=O)N[C@@H](CC(C)C)C(=O)N(C)[C@@H](CC(C)C)C(=O)N[C@@H]([C@@H](C)O)C1=O (stereo partly drawn) [Compound C09] ([dV][NMeF]L[NMeL]T[NBuGly][NMeL]S(CH2CH(OH)CF3)[NMeF][NMeV]D-Piperidide; lactam N-11)
Papp [1]: 0.12 ×10⁻⁶ cm/s

CCCCN1CC(=O)N(C)[C@@H](Cc2cccc(Cl)c2)C(=O)N(C)[C@@H](CC(C)C)C(=O)N[C@@H](COCC[C@H](C)O)C(=O)N(C)[C@@H](CC(C)C)C(=O)N[C@H](C(=O)N2CCCCC2)CC(=O)N(C)CC(=O)N(C)[C@@H](Cc2ccccc2)C(=O)N[C@@H](C(C)C)C(=O)N(C)[C@@H](CC(C)C)C(=O)N[C@@H]([C@@H](C)O)C1=O [AP106] ([Sar][NMeF]V[NMeL]T[NBuGly][NMePhe(3-Cl)][NMeL]S(Butyl(3S-OH))[NMeL]D-Piperidide; lactam N-11)
Papp (Caco-2, Caco-2 (cm/sec)): 0.25 ×10⁻⁶ cm/s

CC[C@H](C)[C@H]1C(=O)N[C@@H](Cc2c[nH]c3ccccc23)C(=O)N(C)CC(=O)N(C)[C@@H](C)C(=O)N[C@H](C(=O)N2CCCCC2)CC(=O)N(C)[C@@H](C)C(=O)N[C@@H](CC(C)C)C(=O)N(C)[C@@H](CC(C)C)C(=O)N(C)[C@@H](CC(C)C)C(=O)N[C@@H](C)C(=O)N(C)[C@@H](CC(C)C)C(=O)N1C [pd101] ([NMeA]L[NMeL][NMeL]A[NMeL][NMeI]W[Sar][NMeA]D-Piperidide; lactam N-11)
Papp (Caco-2, Caco-2 (cm/sec)): 0.13 ×10⁻⁶ cm/s

CCCCN1CC(=O)N(C)[C@@H](Cc2ccccc2)C(=O)N(C)[C@@H](CC(C)C)C(=O)N[C@@H](CC(C)C)C(=O)N(C)[C@@H](CC(C)C)C(=O)N[C@H](C(=O)N2CCCCC2)CC(=O)N(C)CC(=O)N(C)[C@@H](CC(C)C)C(=O)N[C@@H](Cc2ccc(O)cc2)C(=O)N(C)[C@@H](CC)C(=O)N[C@@H]([C@@H](C)O)C1=O [Compound F07] ([Sar][NMeL]Y[NMeAbu]T[NBuGly][NMeF][NMeL]L[NMeL]D-Piperidide; lactam N-11)
Papp (Caco-2, Caco-2 (cm/sec)): 0.54 ×10⁻⁶ cm/s

CC[C@H](C)[C@@H]1NC(=O)[C@H](CC(C)C)N(C)C(=O)CCCN(C)C(=O)C[C@@H](C(=O)N2CCCCC2)NC(=O)[C@H](CC(C)C)N(C)C(=O)[C@H](CC(C)C)N(C)C(=O)[C@H]([C@@H](C)O)NC(=O)[C@H](CC(C)C)N(C)C(=O)[C@H](Cc2ccc(C(=O)NC)c(OC)c2)NC(=O)[C@H](CC(C)C)N(C)C(=O)[C@H](Cc2ccccc2)N(C)C1=O [AP30] ([NMeGABA][NMeL]I[NMeF][NMeL][Phe(3-OMe,4-CONHMe)][NMeL]T[NMeL][NMeL]D-Piperidide; lactam N-11)
Papp (Caco-2, Caco-2 (cm/sec)): 0.19 ×10⁻⁶ cm/s

CC(C)C[C@@H]1NC(=O)[C@H](CCc2ccccc2)N(C)C(=O)[C@@H](C(C)C)NC(=O)C[C@@H](C(=O)N2CCCCC2)NC(=O)[C@H](CC(C)C)N(C)C(=O)[C@H](Cc2ccccc2)N(C)C(=O)[C@H](COCCC(C)(C)O)NC(=O)[C@H](CC(C)C)N(C)C(=O)CN(C)C(=O)[C@H]([C@@H](C)O)NC(=O)[C@H](CC(C)C)N(C)C1=O [AP60] ([dV][NMehPhe]L[NMeL]T[Sar][NMeL]S(Butyl(3-Me,3-OH))[NMeF][NMeL]D-Piperidide; lactam N-11)
Papp (Caco-2, Caco-2 (cm/sec)): 1 ×10⁻⁶ cm/s

CC[C@H](C)[C@H]1C(=O)N[C@@H]([C@@H](C)O)C(=O)N(C)CC(=O)N(C)[C@@H](CC(C)C)C(=O)N[C@H](C(=O)N2CCCCC2)CC(=O)N(C)[C@@H](C(C)C)C(=O)N[C@@H](CC(C)C)C(=O)N(C)[C@@H](CC(C)C)C(=O)N(C)[C@@H](Cc2ccccc2)C(=O)N[C@@H](CCCC(O)C(F)(F)F)C(=O)N(C)[C@@H](Cc2ccccc2)C(=O)N1C (stereo partly drawn) [Compound D05] ([NMeV]L[NMeL][NMeF][X12][NMeF][NMeI]T[Sar][NMeL]D-Piperidide; lactam N-11)
Papp [1]: 0.36 ×10⁻⁶ cm/s

CC(C)C[C@@H]1NC(=O)[C@H](CC(C)C)N(C)C(=O)[C@H](C)N(C)C(=O)[C@@H](C(C)C)NC(=O)C[C@@H](C(=O)N2CCCCC2)NC(=O)[C@H]([C@@H](C)O)NC(=O)[C@H](C)N(C)C(=O)CN(C)C(=O)[C@H](CC(C)C)N(C)C(=O)[C@H](Cc2c[nH]c3ccccc23)NC(=O)[C@H](Cc2ccccc2)N(C)C1=O [pd100] ([dV][NMeA][NMeL]L[NMeF]W[NMeL][Sar][NMeA]TD-Piperidide; lactam N-11)
Papp (Caco-2, Caco-2 (cm/sec)): 0.11 ×10⁻⁶ cm/s

CCCCN1CC(=O)N(C)[C@@H](CC(C)C)C(=O)N[C@@H](COC(C)(C)C)C(=O)N(C)[C@@H](Cc2ccccc2)C(=O)N(C)[C@@H](CC(C)C)C(=O)N[C@H](C(=O)N2CCCCC2)CC(=O)N[C@H](C(C)C)C(=O)N(C)[C@@H](C(C)C)C(=O)N[C@@H](Cc2ccc(C(=O)NC)c(OC)c2)C(=O)N(C)[C@@H](CC(C)C)C(=O)N[C@@H]([C@@H](C)O)C1=O [AP27] ([dV][NMeV][Phe(3-OMe,4-CONHMe)][NMeL]T[NBuGly][NMeL]S(tBu)[NMeF][NMeL]D-Piperidide; lactam N-11)
Papp (Caco-2, Caco-2 (cm/sec)): 0.91 ×10⁻⁶ cm/s

CCCCN1CC(=O)N(C)[C@@H](Cc2ccccc2)C(=O)N(C)[C@@H](CC(C)C)C(=O)N[C@@H](COC(C)(C)C)C(=O)N(C)[C@@H](CC(C)C)C(=O)N[C@H](C(=O)N2CCCCC2)CC(=O)N(C)CC(=O)N(C)[C@@H](Cc2ccccc2)C(=O)N[C@@H](C(C)C)C(=O)N(C)[C@@H](CC(C)C)C(=O)N[C@@H](COC[C@@H](C)O)C1=O [AP87] ([Sar][NMeF]V[NMeL]S(Propyl(2R-OH))[NBuGly][NMeF][NMeL]S(tBu)[NMeL]D-Piperidide; lactam N-11)
Papp (Caco-2, Caco-2 (cm/sec)): 1 ×10⁻⁶ cm/s

CC[C@H](C)[C@@H]1NC(=O)[C@H](CC(C)C)N(C)C(=O)CN(C)C(=O)C[C@@H](C(=O)N2CCCCC2)NC(=O)[C@H](CC(C)C)N(C)C(=O)[C@H](Cc2ccc(OC)c(C(=O)NC)c2)NC(=O)[C@H](CC(C)C)N(C)C(=O)[C@H](Cc2cccc(Cl)c2)N(C)C(=O)CN(C)C(=O)[C@H]([C@@H](C)O)NC(=O)[C@H](CC(C)C)N(C)C1=O [AP42] ([Sar][NMeL]I[NMeL]T[Sar][NMePhe(3-Cl)][NMeL][Phe(3-CONHMe,4-OMe)][NMeL]D-Piperidide; lactam N-11)
Papp (Caco-2, Caco-2 (cm/sec)): 0.25 ×10⁻⁶ cm/s

CC(C)C[C@@H]1NC(=O)[C@H](Cc2ccccc2)N(C)C(=O)[C@@H](C(C)C)NC(=O)C[C@@H](C(=O)N2CCCCC2)NC(=O)[C@H](CC(C)C)N(C)C(=O)[C@H](Cc2cccc(Cl)c2)N(C)C(=O)[C@H](COCC[C@H](C)O)NC(=O)[C@H](CC(C)C)N(C)C(=O)CN(C)C(=O)[C@H]([C@@H](C)O)NC(=O)[C@H](CC(C)C)N(C)C1=O [AP100] ([dV][NMeF]L[NMeL]T[Sar][NMeL]S(Butyl(3S-OH))[NMePhe(3-Cl)][NMeL]D-Piperidide; lactam N-11)
Papp (Caco-2, Caco-2 (cm/sec)): 0.55 ×10⁻⁶ cm/s

CCCN1CC(=O)N(C)[C@@H](CC(C)C)C(=O)N[C@@H](COCC(C)(C)O)C(=O)N(C)[C@@H](Cc2ccccc2)C(=O)N(C)[C@@H](CC(C)C)C(=O)N[C@H](C(=O)N2CCCCC2)CC(=O)N[C@H](C(C)C)C(=O)N(C)[C@@H](Cc2ccccc2)C(=O)N[C@@H](CC(C)C)C(=O)N(C)[C@@H](CC(C)C)C(=O)N[C@@H]([C@@H](C)O)C1=O [AP10] ([dV][NMeF]L[NMeL]T[NPrGly][NMeL]S(CH2CMe2OH)[NMeF][NMeL]D-Piperidide; lactam N-11)
Papp (Caco-2, Caco-2 (cm/sec)): 1.5 ×10⁻⁶ cm/s
